Literature values as cited in patent publication US8414913B2, “Edible compositions for lowering cholesterol” (Raisio Benecol Oy, priority 2001, dated 2013).

Tested on: total and low density lipoprotein (LDL) cholesterol level
Conditions: diets with high β-glucan content; Ripsin et al. 1992, Braaten et al. 1994

β-glucan
lowering of total and LDL cholesterol level: 8-12%
